Assay results reported in US6541423B1, “4-(3′,4′-heterocyclyl benzoyl) pyrazoles as herbicidal agents” (BASF Aktiengesellschaft, priority 1999, dated 2003).
Values belong to the compound of their own block, whether it stands above or below them.

Tests used:
SOLNI = test: greenhouse post-emergence herbicidal test; type: in vivo, black nightshade
Excerpt: (§1) The culture containers used were plastic flowerpots containing loamy sand with approximately 3.0% of humus as substrate. The seeds of the test plants were sown separately for each species. For the post-emergence treatment, the test plants were first grown to a plant height of from 3 to 15 cm, depending on the plant habit, and only then treated with the active ingredients which had been suspended or emulsified in water. To this end, the test plants were either sown directly and grown in the same containers, or they were first grown separately as seedlings and transplanted into the test containers a few days prior to treatment. […] Depending on the species, the plants were kept at from 10 to 25° C., or 20-35° C., respectively. The test period extended over 2 to 4 weeks. During this time, the plants were tended, and their response to the individual treatments was evaluated. Evaluation was carried out using a scale of from 0 to 100. 100 means no emergence of the plants, or complete destruction of at least the aerial parts, and 0 means no damage, or normal course of growth. [table]

CHEAL = test: greenhouse post-emergence herbicidal test; type: in vivo, lambsquarters (goosefoot)
Excerpt: as §1

POLPE = test: greenhouse post-emergence herbicidal test; type: in vivo, ladysthumb
Excerpt: as §1

AVEFA = test: greenhouse post-emergence herbicidal test; type: in vivo, wild oats
Excerpt: as §1

GALAP = test: greenhouse post-emergence herbicidal test; type: in vivo, catchweed bedstraw; conditions: application rates 0.5 and 0.25 kg/ha (a.s.)
Excerpt: The culture containers used were plastic flowerpots containing loamy sand with approximately 3.0% of humus as substrate. The seeds of the test plants were sown separately for each species. For the post-emergence treatment, the test plants were first grown to a plant height of from 3 to 15 cm, depending on the plant habit, and only then treated with the active ingredients which had been suspended or emulsified in water. To this end, the test plants were either sown directly and grown in the same containers, or they were first grown separately as seedlings and transplanted into the test containers a few days prior to treatment. The rate of application for the post-emergence treatment was 0.5 or 0.25 kg of a.s. (active. substance)/ha. Depending on the species, the plants were kept at from 10 to 25° C., or 20-35° C., respectively. The test period extended over 2 to 4 weeks. During this time, the plants were tended, and their response to the individual treatments was evaluated. Evaluation was carried out using a scale of from 0 to 100. 100 means no emergence of the plants, or complete destruction of at least the aerial parts, and 0 means no damage, or normal course of growth. [table]

STEME = test: greenhouse post-emergence herbicidal test; type: in vivo, common chickweed
Excerpt: as §1

LAMAM = test: greenhouse post-emergence herbicidal test; type: in vivo, henbit
Excerpt: as §1

PAPRH = test: greenhouse post-emergence herbicidal test; type: in vivo, corn poppy
Excerpt: as §1

THLAR = test: greenhouse post-emergence herbicidal test; type: in vivo, fanweed
Excerpt: as §1

wheat = test: greenhouse post-emergence test, crop selectivity; type: in vivo, spring wheat; conditions: application rates 0.125 and 0.0625 kg/ha
Excerpt: as §1

MYOAR = test: greenhouse post-emergence herbicidal test; type: in vivo, forget-me-not
Excerpt: as §1

EPHHL = test: greenhouse post-emergence herbicidal test; type: in vivo, spurge
Excerpt: as §1

GASPA = test: greenhouse post-emergence herbicidal test; type: in vivo, smallflower; conditions: application rates 0.125 and 0.0625 kg/ha
Excerpt: as §1

AMARE = test: greenhouse post-emergence herbicidal test; type: in vivo, redroot pigweed
Excerpt: as §1

ECHCG = test: greenhouse post-emergence herbicidal test; type: in vivo, barnyard grass
Excerpt: as §1

[1] = application rates 0.5 and 0.25 kg/ha (a.s.)
[2] = application rates 0.25 and 0.125 kg/ha
[3] = application rates 0.125 and 0.0625 kg/ha
[4] = application rates 0.5 and 0.25 kg/ha

- melting point: 149 to 150 °C
Structure (SMILES): Cc1c(C(=O)c2cnn(C)c2O)ccc2scnc12 [Example 1, 4-[4′-Methylbenzothiazol-5′-ylcarbonyl]-5-hydroxy-1-methylpyrazole]
- herbicidal action against SOLNI (SOLNI; [1]): very good herbicidal action
- herbicidal action against CHEAL (CHEAL; [1]): very good herbicidal action
- herbicidal action against POLPE (POLPE; [1]): very good herbicidal action
- herbicidal action against AVEFA (AVEFA; [1]): very good herbicidal action
- herbicidal action against GALAP (GALAP): very good herbicidal action

Structure (SMILES): Cc1c(C(=O)c2cnn(C(C)C)c2O)ccc2scnc12 [Example 12, 4-(4′-methylbenzothiazol-5′-ylcarbonyl)-5-hydroxy-1-isopropylpyrazole]
- herbicidal action against STEME (STEME; [2]): very good herbicidal action
- herbicidal action against CHEAL (CHEAL; [2]): very good herbicidal action
- herbicidal action against LAMAM (LAMAM; [2]): very good herbicidal action
- herbicidal action against PAPRH (PAPRH; [2]): very good herbicidal action
- herbicidal action against THLAR (THLAR; [2]): very good herbicidal action

- selectivity in wheat (wheat): selectivity in wheat
Structure (SMILES): Cc1c(C(=O)c2cnn(C)c2OCc2ccccc2)ccc2scnc12 [Example 13, 4-(4′-methylbenzothiazol-5′-ylcarbonyl)-5-benzyloxy-1-methylpyrazole]
- herbicidal action against SOLNI (SOLNI; [3]): very good herbicidal action
- herbicidal action against MYOAR (MYOAR; [3]): very good herbicidal action
- herbicidal action against CHEAL (CHEAL; [3]): very good herbicidal action
- herbicidal action against PAPRH (PAPRH; [3]): very good herbicidal action
- herbicidal action against EPHHL (EPHHL; [3]): very good herbicidal action

Structure (SMILES): Cc1nc2c(C)c(C(=O)c3cnn(C)c3O)ccc2s1 [Example 14, 4-(2′,4′-dimethylbenzothiazol-5′-ylcarbonyl)-5-hydroxy-1-methylpyrazole]
- herbicidal action against STEME (STEME; [3]): very good herbicidal action
- herbicidal action against GASPA (GASPA): very good herbicidal action
- herbicidal action against LAMAM (LAMAM; [3]): very good herbicidal action
- herbicidal action against THLAR (THLAR; [3]): very good herbicidal action

Structure (SMILES): Cc1c(C(=O)c2cnn(C)c2OC(=O)c2ccccc2)ccc2scnc12 [Example 15, 4-(4′-methylbenzothiazol-5′-ylcarbonyl)-5-benzoyloxy-1-methylpyrazole]
- herbicidal action against CHEAL (CHEAL; [2]): very good herbicidal action
- herbicidal action against POLPE (POLPE; [2]): very good herbicidal action
- herbicidal action against AMARE (AMARE; [2]): very good herbicidal action
- herbicidal action against ECHCG (ECHCG; [2]): very good herbicidal action
- herbicidal action against AVEFA (AVEFA; [2]): very good herbicidal action

Structure (SMILES): Cc1c(C(=O)c2cnn(C)c2OC(=O)c2cccc(F)c2)ccc2scnc12 [Example 16, 4-(4′-methylbenzothiazol-5′-ylcarbonyl)-5-(3″-fluorobenzoyl)oxy-1-methylpyrazole]
- herbicidal action against CHEAL (CHEAL; [1]): very good herbicidal action
- herbicidal action against POLPE (POLPE; [1]): very good herbicidal action
- herbicidal action against AMARE (AMARE; [4]): very good herbicidal action
- herbicidal action against ECHCG (ECHCG; [4]): very good herbicidal action
- herbicidal action against GALAP (GALAP): very good herbicidal action

Structure (SMILES): Cc1c(C(=O)c2cnn(C)c2OC(=O)C2CC2)ccc2scnc12 [Example 18, 4-(4′-methylbenzothiazol-5′-ylcarbonyl)-5-cyclopropylcarbonyloxy-1-methylpyrazole]
- herbicidal action against CHEAL (CHEAL; [2]): very good herbicidal action
- herbicidal action against POLPE (POLPE; [2]): very good herbicidal action
- herbicidal action against AMARE (AMARE; [2]): very good herbicidal action
- herbicidal action against ECHCG (ECHCG; [2]): very good herbicidal action
- herbicidal action against AVEFA (AVEFA; [2]): very good herbicidal action

Structure (SMILES): CCc1nc2c(C)c(C(=O)c3cnn(C)c3O)ccc2o1 [Example 30, 4-(2′-ethyl-4′-methylbenzoxazol-5′-ylcarbonyl)-5-hydroxy-1-methylpyrazole]
- herbicidal action against CHEAL (CHEAL; [2]): very good herbicidal action
- herbicidal action against LAMAM (LAMAM; [2]): very good herbicidal action
- herbicidal action against POLPE (POLPE; [2]): very good herbicidal action
- herbicidal action against PAPRH (PAPRH; [2]): very good herbicidal action
- herbicidal action against THLAR (THLAR; [2]): very good herbicidal action

Structure (SMILES): CCc1nc2c(C)c(C(=O)c3cnn(C(C)C)c3O)ccc2o1 [Example 31, 4-(2′-ethyl-4′-methylbenzoxazol-5′-ylcarbonyl)-5-hydroxy-1-isopropylpyrazole]
- herbicidal action against CHEAL (CHEAL; [2]): very good herbicidal action
- herbicidal action against LAMAM (LAMAM; [2]): very good herbicidal action
- herbicidal action against POLPE (POLPE; [2]): very good herbicidal action
- herbicidal action against AMARE (AMARE; [2]): very good herbicidal action
- herbicidal action against PAPRH (PAPRH; [2]): very good herbicidal action
- herbicidal action against THLAR (THLAR; [2]): very good herbicidal action

Structure (SMILES): Cc1nc2c(C)c(C(=O)c3cnn(C(C)C)c3O)ccc2s1 [Example 33, 4-(2′,4′-dimethylbenzothiazol-5′-ylcarbonyl)-5-hydroxy-1-isopropylpyrazole]
- herbicidal action against MYOAR (MYOAR; [2]): very good herbicidal action
- herbicidal action against CHEAL (CHEAL; [2]): very good herbicidal action
- herbicidal action against LAMAM (LAMAM; [2]): very good herbicidal action
- herbicidal action against AMARE (AMARE; [2]): very good herbicidal action
- herbicidal action against PAPRH (PAPRH; [2]): very good herbicidal action
- herbicidal action against THLAR (THLAR; [2]): very good herbicidal action

Structure (SMILES): COCc1nc2c(C)c(C(=O)c3cnn(C)c3O)ccc2s1 [Example 34, 4-(2′-methoxymethyl-4′-methylbenzothiazol-5′-ylcarbonyl)-5-hydroxy-1-methylpyrazole]
- herbicidal action against STEME (STEME; [2]): very good herbicidal action
- herbicidal action against CHEAL (CHEAL; [2]): very good herbicidal action
- herbicidal action against LAMAM (LAMAM; [2]): very good herbicidal action
- herbicidal action against PAPRH (PAPRH; [2]): very good herbicidal action
- herbicidal action against THLAR (THLAR; [2]): very good herbicidal action

Structure (SMILES): COCc1nc2c(C)c(C(=O)c3cnn(C(C)C)c3O)ccc2s1 [Example 36, 4-(2′-methoxymethyl-4′-methylbenzothiazol-5′-ylcarbonyl)-5-hydroxy-1-isopropylpyrazole]
- herbicidal action against STEME (STEME; [2]): very good herbicidal action
- herbicidal action against SOLNI (SOLNI; [2]): very good herbicidal action
- herbicidal action against MYOAR (MYOAR; [2]): very good herbicidal action
- herbicidal action against CHEAL (CHEAL; [2]): very good herbicidal action
- herbicidal action against PAPRH (PAPRH; [2]): very good herbicidal action
- herbicidal action against EPHHL (EPHHL; [2]): very good herbicidal action
